Source: PubChem BioAssay (NCI)
“And” between values parts separate entries of the source, which are not always exact repeats. Equal entries are not always repeated.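 Results reflect a 48-hour exposure of cells in 96-well plates to compound at five concentrations. GI50: concentration for 50% inhibition of growth. At the TGI there is no net growth.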

Key:
Experiment in all cases: NCI tumour cell line growth inhibition, 48 h
HCC-2998 colon = tested on: HCC-2998 colon
HCT-15 colon = tested on: HCT-15 colon
HL-60(TB) leukemia = tested on: HL-60(TB) leukemia
HOP-92 NSCLC = tested on: HOP-92 NSCLC
MOLT-4 leukemia = tested on: MOLT-4 leukemia
NCI-H23 lung = tested on: NCI-H23 lung
OVCAR-3 ovarian = tested on: OVCAR-3 ovarian
OVCAR-5 ovarian = tested on: OVCAR-5 ovarian
SK-MEL-28 melanoma = tested on: SK-MEL-28 melanoma
T-47D breast = tested on: T-47D breast

Nc1nccc(-c2c(-c3ccc(F)cc3)ncn2C2CCNCC2)n1
GI50 (HCC-2998 colon): 9.58 µM and 3.89 µM
TGI (HCC-2998 colon): > 25 µM and 12.2 µM
GI50 (HCT-15 colon): > 25 µM and 6.43 µM
TGI (HCT-15 colon): > 25 µM
GI50 (HL-60(TB) leukemia): > 25 µM and 6.47 µM
TGI (HL-60(TB) leukemia): > 25 µM
GI50 (HOP-92 NSCLC): 3.07 µM
TGI (HOP-92 NSCLC): > 25 µM
GI50 (MOLT-4 leukemia): 17.8 µM and 7.16 µM
TGI (MOLT-4 leukemia): > 25 µM
GI50 (NCI-H23 lung): 9.71 µM and 4.41 µM
TGI (NCI-H23 lung): > 25 µM and 18.8 µM
GI50 (OVCAR-3 ovarian): 6.78 µM and 4.93 µM
TGI (OVCAR-3 ovarian): > 25 µM
GI50 (OVCAR-5 ovarian): 9.62 µM and 5.81 µM
TGI (OVCAR-5 ovarian): > 25 µM
GI50 (SK-MEL-28 melanoma): 10.2 µM and 8.41 µM
TGI (SK-MEL-28 melanoma): > 25 µM
GI50 (T-47D breast): 1.55 µM and 4.2 µM
TGI (T-47D breast): > 25 µM

CNNC1=NS(=O)(=O)c2cc(C#N)c(Cl)cc2S1
TGI (HCC-2998 colon): > 10 µM
TGI (HCT-15 colon): > 10 µM
TGI (HL-60(TB) leukemia): > 10 µM
TGI (MOLT-4 leukemia): > 10 µM
TGI (NCI-H23 lung): > 10 µM
TGI (OVCAR-3 ovarian): > 10 µM
TGI (OVCAR-5 ovarian): > 10 µM
TGI (SK-MEL-28 melanoma): > 10 µM
TGI (T-47D breast): > 10 µM

CCOC(=O)C1Cc2c(cc3c4c(cccc24)N(C(C)=O)C3)N(C)C1 (configuration not stated)
TGI (HCC-2998 colon): > 100 µM
TGI (HCT-15 colon): > 100 µM
TGI (HL-60(TB) leukemia): > 100 µM
TGI (HOP-92 NSCLC): 99.7 µM
TGI (MOLT-4 leukemia): > 100 µM
TGI (NCI-H23 lung): > 100 µM
TGI (OVCAR-3 ovarian): 3.27 µM
TGI (OVCAR-5 ovarian): > 100 µM
TGI (SK-MEL-28 melanoma): > 100 µM
TGI (T-47D breast): > 100 µM

CC(=O)O[C@H]1C(=O)[C@@]2(C)C(C(OC(=O)c3ccccc3)[C@]3(O)C[C@H](OC(=O)C(OC(=O)CCCC(=O)NCCCN(C)C)C(NC(=O)c4ccccc4)c4ccccc4)C(C)=C1C3(C)C)C1(OC(C)=O)COC1C[C@@H]2O (some centres not stated)
TGI (HCC-2998 colon): 0.0309 µM
TGI (HCT-15 colon): 19.2 µM
TGI (HL-60(TB) leukemia): 0.0832 µM
TGI (HOP-92 NSCLC): 37.2 µM
TGI (MOLT-4 leukemia): 12.5 µM
TGI (NCI-H23 lung): 18.2 µM
TGI (OVCAR-3 ovarian): < 0.01 µM
TGI (OVCAR-5 ovarian): 13.1 µM
TGI (SK-MEL-28 melanoma): 55.5 µM
TGI (T-47D breast): 47.8 µM

COc1ccc(C2=N[C@@H](Cc3ccccc3)C(=O)Nc3ccsc32)cc1
GI50 (HCC-2998 colon): 12 µM
TGI (HCC-2998 colon): 25.8 µM
GI50 (HCT-15 colon): 3.9 µM
TGI (HCT-15 colon): 20.4 µM
GI50 (HL-60(TB) leukemia): 3.91 µM
TGI (HL-60(TB) leukemia): 19.3 µM
GI50 (HOP-92 NSCLC): 2.32 µM
TGI (HOP-92 NSCLC): 16.7 µM
GI50 (MOLT-4 leukemia): 3.98 µM
TGI (MOLT-4 leukemia): 19.3 µM
GI50 (NCI-H23 lung): 11.1 µM
TGI (NCI-H23 lung): 39.6 µM
GI50 (OVCAR-3 ovarian): 3.56 µM
TGI (OVCAR-3 ovarian): 9.88 µM
GI50 (OVCAR-5 ovarian): 11.5 µM
TGI (OVCAR-5 ovarian): 36.4 µM
GI50 (SK-MEL-28 melanoma): 9.66 µM
TGI (SK-MEL-28 melanoma): 24.5 µM
GI50 (T-47D breast): 5.64 µM
TGI (T-47D breast): 48.4 µM

C=C=C(CC1CCCCC1=O)S(=O)(=O)c1ccccc1 (configuration not stated)
TGI (HCC-2998 colon): > 10 µM
TGI (HCT-15 colon): > 10 µM
TGI (HL-60(TB) leukemia): 2.5 µM
TGI (HOP-92 NSCLC): > 10 µM
TGI (MOLT-4 leukemia): 3.06 µM
TGI (NCI-H23 lung): > 10 µM
TGI (OVCAR-3 ovarian): > 10 µM
TGI (OVCAR-5 ovarian): > 10 µM
TGI (SK-MEL-28 melanoma): > 10 µM
TGI (T-47D breast): > 10 µM

COc1cc(/C=C\c2cc(OC)c(OC)c(OC)c2)cc(N/C=C\C(=O)c2ccc(OC(F)(F)F)cc2)c1OC
GI50 (HCC-2998 colon): 3.71 µM
TGI (HCC-2998 colon): > 100 µM
GI50 (HCT-15 colon): 3.42 µM
TGI (HCT-15 colon): > 100 µM
GI50 (HL-60(TB) leukemia): 2.8 µM
TGI (HL-60(TB) leukemia): 8.08 µM
GI50 (HOP-92 NSCLC): 12.6 µM
TGI (HOP-92 NSCLC): > 100 µM
GI50 (MOLT-4 leukemia): 3.99 µM
TGI (MOLT-4 leukemia): > 100 µM
GI50 (NCI-H23 lung): 4.38 µM
TGI (NCI-H23 lung): > 100 µM
GI50 (OVCAR-3 ovarian): 3.48 µM
TGI (OVCAR-3 ovarian): 10.6 µM
GI50 (OVCAR-5 ovarian): 8.2 µM
TGI (OVCAR-5 ovarian): > 100 µM
GI50 (SK-MEL-28 melanoma): 10.4 µM
TGI (SK-MEL-28 melanoma): > 100 µM
GI50 (T-47D breast): 4.16 µM
TGI (T-47D breast): > 100 µM

CS(=O)(=O)Nc1cncc(-c2ccc3ncnc(Nc4ccc(F)c(Cl)c4)c3c2)c1
GI50 (HCC-2998 colon): 4.19 µM
TGI (HCC-2998 colon): 16.8 µM
GI50 (HCT-15 colon): 3.66 µM
TGI (HCT-15 colon): 16 µM
GI50 (HL-60(TB) leukemia): 2.08 µM
TGI (HL-60(TB) leukemia): 9.62 µM
GI50 (HOP-92 NSCLC): 0.369 µM
TGI (HOP-92 NSCLC): 4.82 µM
GI50 (MOLT-4 leukemia): 1.6 µM
TGI (MOLT-4 leukemia): 4.65 µM
GI50 (NCI-H23 lung): 2.41 µM
TGI (NCI-H23 lung): 13.1 µM
GI50 (OVCAR-3 ovarian): 1.58 µM
TGI (OVCAR-3 ovarian): 7.19 µM
GI50 (OVCAR-5 ovarian): 2.4 µM
TGI (OVCAR-5 ovarian): 22 µM
GI50 (SK-MEL-28 melanoma): 2.65 µM
TGI (SK-MEL-28 melanoma): 15.6 µM
GI50 (T-47D breast): 0.189 µM
TGI (T-47D breast): 2.5 µM

CC(C)c1[nH]nc(C(N)=O)c1N=NN(C)C
TGI (HCC-2998 colon): > 100 µM
TGI (HCT-15 colon): > 100 µM
TGI (HL-60(TB) leukemia): > 100 µM
TGI (HOP-92 NSCLC): > 100 µM
TGI (MOLT-4 leukemia): > 100 µM
TGI (NCI-H23 lung): > 100 µM
TGI (OVCAR-3 ovarian): > 100 µM
TGI (SK-MEL-28 melanoma): > 100 µM
TGI (T-47D breast): > 100 µM

NNC(=S)N/N=C(\C(=O)Nc1cccc(O)c1)C1C(=O)NC(=S)NC1=O
TGI (HCC-2998 colon): > 100 µM
TGI (HCT-15 colon): > 100 µM
TGI (HL-60(TB) leukemia): > 100 µM
TGI (HOP-92 NSCLC): > 100 µM
TGI (MOLT-4 leukemia): > 100 µM
TGI (OVCAR-3 ovarian): > 100 µM
TGI (OVCAR-5 ovarian): > 100 µM
TGI (SK-MEL-28 melanoma): > 100 µM
TGI (T-47D breast): > 100 µM

Cc1cc(O)c(=O)cc2c1C[C@H]1CC(C)(C)/C=C/C[C@]3(C)Oc4cc(=O)c(O)cc(C)c4C[C@H]3C[C@H](O)[C@@]1(C)O2
GI50 (HCC-2998 colon): < 0.0149 µM
TGI (HCC-2998 colon): > 100 µM
GI50 (HCT-15 colon): < 0.01 µM
TGI (HCT-15 colon): > 100 µM
GI50 (HL-60(TB) leukemia): 0.0249 µM
TGI (HL-60(TB) leukemia): 0.102 µM
GI50 (NCI-H23 lung): < 0.01 µM
TGI (NCI-H23 lung): 0.0345 µM
GI50 (OVCAR-3 ovarian): < 0.01 µM
TGI (OVCAR-3 ovarian): 19.6 µM
GI50 (OVCAR-5 ovarian): 0.0434 µM
TGI (OVCAR-5 ovarian): > 100 µM
GI50 (SK-MEL-28 melanoma): 0.0423 µM
TGI (SK-MEL-28 melanoma): 19.9 µM
GI50 (T-47D breast): < 0.01 µM
TGI (T-47D breast): 0.0949 µM

O=C1CSCc2sccc21
TGI (HCC-2998 colon): > 100 µM
TGI (HCT-15 colon): > 100 µM
TGI (HL-60(TB) leukemia): > 100 µM
TGI (MOLT-4 leukemia): > 100 µM
TGI (NCI-H23 lung): > 100 µM
TGI (OVCAR-3 ovarian): > 100 µM
TGI (OVCAR-5 ovarian): > 100 µM
TGI (SK-MEL-28 melanoma): > 100 µM
TGI (T-47D breast): > 100 µM
